Reference: the NIST ThermoML archive (doi:10.1016/j.fluid.2005.04.008)

Assay: xn = mol fraction of the nth substance listed
Details: Liquid

CCCCCCCC/C=C\CCCCCCCC(=O)OC [methyl cis-9-octadecenoate] + O=C=O
Details | mass density [kg/m3]
313 K, x2 = 0.4876 | 868.6
313 K, x2 = 0.5963 | 874.2
313 K, x2 = 0.7077 | 878.5
313 K, x2 = 0.7931 | 884.3
313 K, x2 = 0.833 | 885.5
313 K, x2 = 0.8595 | 887.5
313 K, x2 = 0.8736 | 887.5
313 K, x2 = 0.8891 | 886.9
313 K, x2 = 0.9111 | 886.4
313 K, x2 = 0.9231 | 885.1
313 K, x2 = 0.9312 | 882.7
313 K, x2 = 0.9387 | 881.2
333 K, x2 = 0.6086 | 857.1
333 K, x2 = 0.6969 | 859.9
333 K, x2 = 0.7916 | 862.3
333 K, x2 = 0.8255 | 864.4
333 K, x2 = 0.8509 | 865.8
333 K, x2 = 0.8813 | 867.4
333 K, x2 = 0.8901 | 864.5
333 K, x2 = 0.9072 | 864.9
333 K, x2 = 0.9167 | 863.2
333 K, x2 = 0.9213 | 863.1
333 K, x2 = 0.9282 | 859.2
333 K, x2 = 0.9341 | 858.9
333 K, x2 = 0.943 | 851.6

CCCCCCCCCC=CC=CC=CC=CC=CC=CC(=O)OCC [docosahexaenoic acid, ethyl ester] + O=C=O
Details | mass density [kg/m3]
313 K, x2 = 0.5325 | 912.2
313 K, x2 = 0.6836 | 915.9
313 K, x2 = 0.7773 | 919.1
313 K, x2 = 0.849 | 920.8
313 K, x2 = 0.8795 | 921.3
313 K, x2 = 0.8972 | 922.1
313 K, x2 = 0.9121 | 923
313 K, x2 = 0.9222 | 923.7
313 K, x2 = 0.9266 | 923.8
313 K, x2 = 0.9335 | 924
313 K, x2 = 0.9366 | 923.9
313 K, x2 = 0.9392 | 924.1
313 K, x2 = 0.9443 | 921.9
333 K, x2 = 0.5583 | 894.9
333 K, x2 = 0.6793 | 896.5
333 K, x2 = 0.7551 | 898.4
333 K, x2 = 0.7811 | 899.5
333 K, x2 = 0.8154 | 900
333 K, x2 = 0.8278 | 900.5
333 K, x2 = 0.8411 | 900.7
333 K, x2 = 0.8612 | 900.8
333 K, x2 = 0.8784 | 901
333 K, x2 = 0.8918 | 901.4
333 K, x2 = 0.9022 | 901.3
333 K, x2 = 0.9114 | 900.5
333 K, x2 = 0.9221 | 899
333 K, x2 = 0.9419 | 887.6

CCCCCCCCCC=CC=CC=CC=CC=CC(=O)OCC [eicosapentaenoic acid, ethyl ester] + O=C=O
Details | mass density [kg/m3]
313 K, x2 = 0.5962 | 907.6
313 K, x2 = 0.6865 | 911.9
313 K, x2 = 0.7582 | 915.2
313 K, x2 = 0.8265 | 916.8
313 K, x2 = 0.8496 | 916.3
313 K, x2 = 0.8708 | 916
313 K, x2 = 0.8826 | 916.1
313 K, x2 = 0.8921 | 916
313 K, x2 = 0.9008 | 915.5
313 K, x2 = 0.9091 | 915.2
313 K, x2 = 0.9184 | 913.7
313 K, x2 = 0.9264 | 912.3
313 K, x2 = 0.9402 | 906.6
333 K, x2 = 0.2842 | 886.2
333 K, x2 = 0.5005 | 888.6
333 K, x2 = 0.5996 | 890.9
333 K, x2 = 0.6826 | 892.9
333 K, x2 = 0.7423 | 894.3
333 K, x2 = 0.7876 | 895.3
333 K, x2 = 0.8186 | 895.6
333 K, x2 = 0.8338 | 895.5
333 K, x2 = 0.8541 | 895.1
333 K, x2 = 0.8766 | 894.8
333 K, x2 = 0.8927 | 894.1
333 K, x2 = 0.9043 | 892.8
333 K, x2 = 0.916 | 890.3
333 K, x2 = 0.9324 | 879.8

CCCCC/C=C\C/C=C\CCCCCCCC(=O)OC [methyl (Z,Z)-9,12-octadecadienate] + O=C=O
Details | mass density [kg/m3]
313 K, x2 = 0.5217 | 879.7
313 K, x2 = 0.6288 | 881.5
313 K, x2 = 0.7185 | 884.5
313 K, x2 = 0.758 | 888.1
313 K, x2 = 0.8057 | 890.6
313 K, x2 = 0.8337 | 892.9
313 K, x2 = 0.8624 | 895.4
313 K, x2 = 0.8862 | 896.8
313 K, x2 = 0.8984 | 895.2
313 K, x2 = 0.9209 | 892.9
313 K, x2 = 0.9289 | 890.5
313 K, x2 = 0.9388 | 885.7
333 K, x2 = 0.6128 | 868.3
333 K, x2 = 0.7016 | 870.8
333 K, x2 = 0.791 | 872.8
333 K, x2 = 0.8255 | 874.1
333 K, x2 = 0.852 | 875
333 K, x2 = 0.8742 | 874.1
333 K, x2 = 0.8981 | 873.4
333 K, x2 = 0.9048 | 872.7
333 K, x2 = 0.9102 | 871.7
333 K, x2 = 0.9156 | 870.5
333 K, x2 = 0.9193 | 870
333 K, x2 = 0.9264 | 864.7
333 K, x2 = 0.934 | 860.3
333 K, x2 = 0.9509 | 838.1
